Assay results from patent publication EP0448765A1, “Use of guanidine derivatives for the manufacture of a medicament with NPY-antagonistic activity” (HEUMANN PHARMA GMBH & CO, priority 1990, dated 1991).

Biological target: T1, spezifischen NPY-Rezeptors (Homo sapiens, UniProt P25929)
T1 construct: intrazellulären Ca⁺⁺-Konzentration in HEL-Zellen (Human Erythroleukemia-Zellen) fluorimetrisch mit Fura-2 als Indikator gemessen; endogenous in cells; host or cells: HEL (human erythroleukemia) cells
T1 sequence (P25929 1-384): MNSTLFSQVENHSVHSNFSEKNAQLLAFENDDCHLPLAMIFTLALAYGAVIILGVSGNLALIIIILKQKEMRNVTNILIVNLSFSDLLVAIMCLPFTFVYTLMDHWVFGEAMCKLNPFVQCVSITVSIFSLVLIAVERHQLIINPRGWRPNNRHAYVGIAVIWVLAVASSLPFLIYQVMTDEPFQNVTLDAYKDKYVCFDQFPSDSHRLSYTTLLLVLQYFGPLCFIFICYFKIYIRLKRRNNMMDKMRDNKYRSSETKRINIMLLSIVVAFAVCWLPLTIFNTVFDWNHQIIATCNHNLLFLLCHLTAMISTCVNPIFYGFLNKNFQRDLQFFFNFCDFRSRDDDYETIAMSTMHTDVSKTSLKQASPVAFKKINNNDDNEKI
Test: Inhibition of the NPY-induced rise of intracellular Ca++ in HEL cells (fluorimetric, Fura-2; method of Motulsky and Michel)
Type: cell-based
Conditions: HEL-Zellen, antagonists added at 10⁻⁴ bis 10⁻⁶ (unit inferred), Schild-Plot-Analyse, read-out: pA2 Hemmung des Ca^++-Anstieges (converted)
Excerpt: Die Neuropeptid-Y-antagonistische Wirkung der erfindungsgemäß verwendeten Verbindungen wurde anhand der Methode von Motulsky und Michel (Motulsky, H.J., Michel, M.C., Am. J. Physiol. 255, 880 (1988)) nachgewiesen.
Bei dieser Methode wird der durch NPY induzierte Anstieg der intrazellulären Ca⁺⁺-Konzentration in HEL-Zellen (Human Erythroleukemia-Zellen) fluorimetrisch mit Fura-2 als Indikator gemessen. Unter den gegebenen Bedingungen bewirkt NPY einen konzentrationsabhängigen Anstieg der intrazellulären Ca⁺⁺-Konzentration über die Stimulation des spezifischen NPY-Rezeptors.
Zur Messung der Hemmwirkung der zu testenden Antagonisten werden diese in Konzentrationen von 10⁻⁴ bis 10⁻⁶ dem Inkubationsmedium zugesetzt. Dann wird erneut eine NPY-Wirkungskurve bestimmt.
Die erfindungsgemäß verwendeten Guanidinverbindungen verschieben die NPY-Konzentrationswirkungskurve nach rechts. Die Rechtsverschiebung ist nach Schild-Plot-Analyse kompetitiv. Die Substanzen antagonisieren demnach die NPY-Wirkung durch Konkurrenz am spezifischen NPY-Rezeptor.

Kb | SMILES
1.32 µM | Cc1cc(Br)cnc1N(CCNC(=N)NCCCc1c[nH]cn1)Cc1ccccc1 [Verbindung C, N¹-[2-[N-(5-Brom-3-methyl-pyridin-2-yl)benzylamino]-ethyl]-N²-[3-(1H-imidazol-4-yl)propyl]-guanidin]
19.1 µM | N=C(NCCCc1c[nH]cn1)NCCC(c1cc(F)cc(F)c1)c1ccccn1 (stereo not shown) [Verbindung B, N¹-[3-(3,5-Difluorphenyl)-3-(pyridin-2-yl)propyl]-N²-[3-(1H-imidazol-4-yl)propyl]-guanidin]
9.12 µM | Cc1cc(Br)cnc1CCCCNC(=N)NCCCc1c[nH]cn1 [Verbindung D, N¹-[4-(5-Brom-3-methyl-pyridin-2-yl)butyl]-N²-[3-(1H-imidazol-4-yl)propyl]-guanidin]
100 µM | N=C(NCCCc1c[nH]cn1)NCCOC(c1ccccc1)c1ccccc1 [Verbindung A, N¹-[3-(1H-Imidazol-4-yl)propyl]-N²-[2-(diphenylmethoxy)ethyl]-guanidin]
